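Briefly, cells in 96-well plates were exposed to five compound concentrations for 48 h, and endpoints were estimated by linear interpolation. GI50 = concentration required for 50% inhibition of growth.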 Activity calls are given as the source filed them. Cut-off read from the data, not from the text of the source: active = GI50 up to about 1.1 µM and inactive = higher.
Tests used:
Test in all cases: NCI tumour cell line growth inhibition, 48 h
786-0 = system: 786-0
A498 = system: A498
A549 = system: A549
ACHN = system: ACHN
CAKI-1 = system: CAKI-1
CCRF-CEM = system: CCRF-CEM
COLO 205 = system: COLO 205
DLD-1 = system: DLD-1
DMS-273 = system: DMS-273
EKVX = system: EKVX
HCC 2998 = system: HCC 2998
HCT-116 = system: HCT-116
HCT-15 = system: HCT-15
HL-60 = system: HL-60
HOP-18 = system: HOP-18
HOP-62 = system: HOP-62
HOP-92 = system: HOP-92
HT-29 = system: HT-29
IGROV-1 = system: IGROV-1
K562 = system: K562
KM-20L2 = system: KM-20L2
KM12 = system: KM12
LXFL 529 = system: LXFL 529
M14 = system: M14
M19-MEL = system: M19-MEL
MOLT-4 = system: MOLT-4
Malme-3M = system: Malme-3M
NCI-H226 = system: NCI-H226
NCI-H23 = system: NCI-H23
NCI-H460 = system: NCI-H460
NCI-H522 = system: NCI-H522
OVCAR-3 = system: OVCAR-3
OVCAR-4 = system: OVCAR-4
OVCAR-5 = system: OVCAR-5
OVCAR-8 = system: OVCAR-8
RPMI-8226 = system: RPMI-8226
RXF 631 = system: RXF 631
SF-268 = system: SF-268
SF-295 = system: SF-295
SF-539 = system: SF-539
SK-MEL-28 = system: SK-MEL-28
SK-MEL-2 = system: SK-MEL-2
SK-MEL-5 = system: SK-MEL-5
SK-OV-3 = system: SK-OV-3
SN12C = system: SN12C
SNB-19 = system: SNB-19
SNB-75 = system: SNB-75
SNB-78 = system: SNB-78
SR = system: SR
SW-620 = system: SW-620
TK-10 = system: TK-10
U-251 = system: U-251
UACC-257 = system: UACC-257
UACC-62 = system: UACC-62
UO-31 = system: UO-31
XF498 = system: XF498
DMS-114 = system: DMS-114
LOX IMVI = system: LOX IMVI
RXF 393 = system: RXF 393

Cc1cc(O)c(C(=O)CC2(O)C(=O)Nc3c(Cl)cc(Cl)cc32)c(=O)o1 (stereo not given)
GI50 (786-0): > 100 µM (inactive)
GI50 (A498): > 100 µM (inactive)
GI50 (A549): > 100 µM (inactive)
GI50 (ACHN): > 100 µM (inactive)
GI50 (CAKI-1): > 100 µM (inactive)
GI50 (CCRF-CEM): 63 µM (inactive)
GI50 (COLO 205): > 100 µM (inactive)
GI50 (DLD-1): > 100 µM (inactive)
GI50 (DMS-273): 41.7 µM (inactive)
GI50 (EKVX): > 100 µM (inactive)
GI50 (HCC 2998): > 100 µM (inactive)
GI50 (HCT-116): > 100 µM (inactive)
GI50 (HCT-15): > 100 µM
GI50 (HL-60): > 100 µM (inactive)
GI50 (HOP-18): > 100 µM (inactive)
GI50 (HOP-62): > 100 µM (inactive)
GI50 (HOP-92): > 100 µM (inactive)
GI50 (HT-29): > 100 µM (inactive)
GI50 (IGROV-1): > 100 µM (inactive)
GI50 (K562): > 100 µM (inactive)
GI50 (KM-20L2): > 100 µM (inactive)
GI50 (KM12): > 100 µM (inactive)
GI50 (LXFL 529): > 100 µM (inactive)
GI50 (M14): > 100 µM (inactive)
GI50 (M19-MEL): 46.8 µM (inactive)
GI50 (MOLT-4): > 100 µM (inactive)
GI50 (Malme-3M): > 100 µM (inactive)
GI50 (NCI-H226): 88.1 µM (inactive)
GI50 (NCI-H23): > 100 µM (inactive)
GI50 (NCI-H460): > 100 µM (inactive)
GI50 (NCI-H522): > 100 µM (inactive)
GI50 (OVCAR-3): > 100 µM (inactive)
GI50 (OVCAR-4): > 100 µM (inactive)
GI50 (OVCAR-5): > 100 µM (inactive)
GI50 (OVCAR-8): > 100 µM (inactive)
GI50 (RPMI-8226): 55.5 µM (inactive)
GI50 (RXF 631): > 100 µM (inactive)
GI50 (SF-268): > 100 µM (inactive)
GI50 (SF-295): > 100 µM (inactive)
GI50 (SF-539): 61.1 µM (inactive)
GI50 (SK-MEL-28): > 100 µM (inactive)
GI50 (SK-MEL-2): > 100 µM (inactive)
GI50 (SK-MEL-5): > 100 µM (inactive)
GI50 (SK-OV-3): > 100 µM (inactive)
GI50 (SN12C): > 100 µM (inactive)
GI50 (SNB-19): > 100 µM (inactive)
GI50 (SNB-75): 26.6 µM (inactive)
GI50 (SNB-78): > 100 µM (inactive)
GI50 (SR): > 100 µM (inactive)
GI50 (SW-620): 52.1 µM (inactive)
GI50 (TK-10): > 100 µM (inactive)
GI50 (U-251): > 100 µM (inactive)
GI50 (UACC-257): > 100 µM (inactive)
GI50 (UACC-62): > 100 µM (inactive)
GI50 (UO-31): > 100 µM (inactive)
GI50 (XF498): > 100 µM (inactive)

Cc1cn(Cc2ccccc2CCO)c(=S)[nH]c1=O
GI50 (786-0): > 100 µM (inactive)
GI50 (A498): > 100 µM (inactive)
GI50 (A549): > 100 µM (inactive)
GI50 (ACHN): > 100 µM (inactive)
GI50 (CAKI-1): > 100 µM (inactive)
GI50 (CCRF-CEM): > 100 µM (inactive)
GI50 (COLO 205): > 100 µM (inactive)
GI50 (DMS-114): > 100 µM (inactive)
GI50 (DMS-273): > 100 µM (inactive)
GI50 (EKVX): > 100 µM (inactive)
GI50 (HCT-15): > 100 µM
GI50 (HL-60): > 100 µM (inactive)
GI50 (HOP-18): > 100 µM (inactive)
GI50 (HOP-62): > 100 µM (inactive)
GI50 (HOP-92): > 100 µM (inactive)
GI50 (HT-29): > 100 µM (inactive)
GI50 (IGROV-1): > 100 µM (inactive)
GI50 (K562): > 100 µM (inactive)
GI50 (KM-20L2): > 100 µM (inactive)
GI50 (KM12): > 100 µM (inactive)
GI50 (LOX IMVI): > 100 µM (inactive)
GI50 (LXFL 529): > 100 µM (inactive)
GI50 (M14): > 100 µM (inactive)
GI50 (M19-MEL): > 100 µM (inactive)
GI50 (MOLT-4): > 100 µM (inactive)
GI50 (Malme-3M): > 100 µM (inactive)
GI50 (NCI-H226): 34.8 µM (inactive)
GI50 (NCI-H23): > 100 µM (inactive)
GI50 (NCI-H460): > 100 µM (inactive)
GI50 (NCI-H522): > 100 µM (inactive)
GI50 (OVCAR-3): > 100 µM (inactive)
GI50 (OVCAR-4): > 100 µM (inactive)
GI50 (OVCAR-5): > 100 µM (inactive)
GI50 (OVCAR-8): > 100 µM (inactive)
GI50 (RPMI-8226): > 100 µM (inactive)
GI50 (RXF 393): > 100 µM (inactive)
GI50 (RXF 631): > 100 µM (inactive)
GI50 (SF-268): > 100 µM (inactive)
GI50 (SF-295): > 100 µM (inactive)
GI50 (SF-539): > 100 µM (inactive)
GI50 (SK-MEL-28): > 100 µM (inactive)
GI50 (SK-MEL-2): > 100 µM (inactive)
GI50 (SK-MEL-5): > 100 µM (inactive)
GI50 (SK-OV-3): > 100 µM (inactive)
GI50 (SN12C): > 100 µM (inactive)
GI50 (SNB-19): > 100 µM (inactive)
GI50 (SNB-75): > 100 µM (inactive)
GI50 (SW-620): > 100 µM (inactive)
GI50 (TK-10): > 100 µM (inactive)
GI50 (U-251): > 100 µM (inactive)
GI50 (UACC-257): > 100 µM (inactive)
GI50 (UACC-62): > 100 µM (inactive)
GI50 (UO-31): > 100 µM (inactive)
GI50 (XF498): > 100 µM (inactive)
